Measured values published in patent US10124004B2, “Pyrido[3,4-d]pyrimidine derivative and pharmaceutically acceptable salt thereof” (Teijin Pharma Limited, priority 2015, dated 2018).
Read-outs that look alike come from different tables or passages of the source.

Experiments:
[1] = biological target: T1, CDK2/cyclin A2 (Homo sapiens, UniProt P24941); test: Human CDK2/cyclin A2 inhibitory activity (QS S Assist CDK2/Cyclin A2_FP Kit, IMAP fluorescence polarization); format: biochemical
T1 construct: purchased Carna Biosciences, Inc. QS S Assist CDK2/Cyclin A2_FP Kit
In short: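 Kinase activity read as fluorescence polarization (485/535 nm) after phosphorylated fluorescent substrate binds IMAP reagent (30 min, RT, dark). Enzyme (2.5 ng/well) reacted 60 min at RT with ATP/substrate/metal in HEPES pH 7.4 buffer with Tween 20 and DTT; no-enzyme wells define 0% activity; IC50 by curve fit.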

[2] = biological target: T2, CDK4/cyclin D3 (Homo sapiens, UniProt P11802); test: Human CDK4/cyclin D3 inhibitory activity (QS S Assist CDK4/Cyclin D3_FP Kit, IMAP fluorescence polarization); format: biochemical
T2 construct: purchased Carna Biosciences, Inc. QS S Assist CDK4/Cyclin D3_FP Kit
In short: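 Percent inhibition, relative to DMSO with and without enzyme, was curve-fitted to give IC50 from polarization (ex 485, em 535 nm). The 45-min room-temperature reaction used 12.5-25 ng/well enzyme, kit ATP/substrate/metal mix, and HEPES pH 7.4 buffer with Tween20 and DTT, followed by 30-min IMAP binding in the dark.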

[3] = Human CDK2/cyclin A2 inhibitory activity, read-out: CDK2 Activity symbol
[4] = Human CDK4/cyclin D3 inhibitory activity, read-out: CDK4 Activity symbol
[5] = 50% inhibitory concentration against CDK2/cyclin A2, given as class symbol
[6] = 50% inhibitory concentration against CDK4/cyclin D3, given as class symbol

T2 sequence (P11802 whole entry): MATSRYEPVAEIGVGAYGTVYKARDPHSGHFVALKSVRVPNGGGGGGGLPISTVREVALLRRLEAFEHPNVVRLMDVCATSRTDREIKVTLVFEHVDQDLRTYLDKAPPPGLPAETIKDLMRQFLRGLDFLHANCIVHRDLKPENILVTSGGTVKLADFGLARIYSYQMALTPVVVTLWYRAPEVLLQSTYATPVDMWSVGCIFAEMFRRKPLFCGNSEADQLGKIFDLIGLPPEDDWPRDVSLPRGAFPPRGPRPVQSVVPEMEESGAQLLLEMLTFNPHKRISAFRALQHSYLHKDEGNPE
T2 sequence (P30281 whole entry partner): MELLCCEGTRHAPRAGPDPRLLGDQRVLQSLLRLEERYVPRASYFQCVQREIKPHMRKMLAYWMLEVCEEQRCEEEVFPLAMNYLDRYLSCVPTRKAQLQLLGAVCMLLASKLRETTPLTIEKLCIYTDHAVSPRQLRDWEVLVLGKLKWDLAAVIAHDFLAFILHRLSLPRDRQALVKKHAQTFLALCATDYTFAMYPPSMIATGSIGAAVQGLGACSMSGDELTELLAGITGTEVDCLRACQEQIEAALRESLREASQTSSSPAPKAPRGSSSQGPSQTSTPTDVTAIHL

Compound	IC50 [1, 3] [nM]	IC50 [2, 4] [nM]	IC50 [1, 5] [nM]	IC50 [2, 6] [nM]
CC(C)Nc1nc([C@@H](C)O)cc2cnc(Nc3ccc(N4CCN(C(C)CO)CC4)nn3)nc12 (stereo partly shown) [Compound 588]	≥ 100	< 10		
C[C@@H](O)c1cc2cnc(Nc3ccc(N4CCNCC4)nn3)nc2c(NC2CCCCC2C(=O)O)n1 (stereo partly shown) [Compound 308]	≥ 100	≥ 100		
O=C1CNCCN1Cc1ccc(Nc2ncc3cc(C(F)F)nc(N[C@H]4CCCOC4)c3n2)nc1 [Compound 856]			≥ 100	< 10
C[C@@H](O)c1cc2cnc(Nc3ccc(CN4CCCC(O)C4)cn3)nc2c(N[C@H]2CC[C@H](O)CC2)n1 (stereo partly shown) [Compound 1086]			≥ 100	< 10
c1cc(Nc2ncc3cc(C4CCOC4)nc(N[C@H]4CCCOC4)c3n2)ncc1CN1CCNCC1 (single isomer, unassigned) [Compound 940]			≥ 100	< 10
CC(C)Nc1nc(C(C)O)cc2cnc(Nc3ccc(N4CCNCC4C(F)(F)F)cn3)nc12 (single isomer, unassigned) [Compound 775]			≥ 100	< 10
C[C@@H](O)c1cc2cnc(Nc3ccc(CN4CCCC(O)C4)cn3)nc2c(NC(C)(C)C)n1 (stereo partly shown) [Compound 1127]			≥ 100	< 10
CC(C)Nc1nc(C(F)F)cc2cnc(Nc3ccc(CCC(N)=O)cn3)nc12 [Compound 121]	10 to 100	< 10		
CCNc1nc([C@@H](C)OC)cc2cnc(Nc3ccc(N4CCNCC4)cn3)nc12 [Compound 919]			≥ 100	< 10
COC1CCC(Nc2nc([C@@H](C)O)cc3cnc(Nc4ccc(OCCN(C)C)cn4)nc23)CC1 (stereo partly shown) [Compound 628]			≥ 100	< 10
CC(C)Nc1nc(C2CC(F)(F)C2)cc2cnc(Nc3ccc(N4CCNCC4=O)cn3)nc12 [Compound 1042]			≥ 100	10 to 100
CC(C)Nc1nc(C(F)F)cc2cnc(Nc3ccc(CCO)cn3)nc12 [Compound 134]	10 to 100	< 10		
CC(C)Nc1nc(C(C)O)cc2cnc(Nc3ccc(OC4CNCC4F)cn3)nc12 (stereo not shown) [Compound 673]			≥ 100	< 10
CC(C)Nc1nc(C(C)O)cc2cnc(Nc3ccc(OC4CCC(C(=O)O)CC4)cn3)nc12 (single isomer, unassigned) [Compound 831]			≥ 100	10 to 100
CC(C)Nc1nc([C@@H](C)O)cc2cnc(Nc3ccc(N4CC(C)NCC4=O)cn3)nc12 (stereo partly shown) [Compound 1032]			≥ 100	< 10
CC(C)Nc1nc([C@@H](C)O)cc2cnc(Nc3ccc(N4CCNC(C(F)(F)F)C4)nn3)nc12 (stereo partly shown) [Compound 896]			≥ 100	< 10
CO[C@H](C)c1cc2cnc(Nc3ccc(N4CCNCC4)nn3)nc2c(N[C@H]2CC[C@H](O)CC2)n1 [Compound 341]	≥ 100	< 10		
CO[C@H](C)c1cc2cnc(Nc3ccc(CN4CC[C@@H](F)C4)cn3)nc2c(NC(C)C)n1 [Compound 271]	≥ 100	< 10		
CC(C)Nc1nc([C@@H](C)O)cc2cnc(Nc3ccc(CN4CCC[C@@H](O)C4)cn3)nc12 [Compound 1196]			≥ 100	< 10

Compound	IC50 [1, 3] [nM]	IC50 [2, 4] [nM]	IC50 [1, 5] [nM]	IC50 [2, 6] [nM]
CC(C)Nc1nc(C(F)F)cc2cnc(Nc3ccc(-c4ccccc4)cn3)nc12 [Compound 99]	≥ 100	≥ 100		
C[C@@H](O)c1cc2cnc(Nc3ccc(N4CCNCC4=O)cn3)nc2c(N[C@H]2CCOC2)n1 [Compound 349]	≥ 100	10 to 100		
CC(C)Nc1nc(C2CCCOC2)cc2cnc(Nc3ccc(N4CCNCC4=O)cn3)nc12 (stereo not shown) [Compound 807]			≥ 100	10 to 100
CC1(c2cc3cnc(Nc4ccc(CN5CCNCC5)cn4)nc3c(NCC3CC(F)(F)C3)n2)COC1 [Compound 1110]			≥ 100	< 10
CC(C)Nc1nc([C@@H](C)O)cc2cnc(Nc3ccc(N4CCNCC4)nn3)nc12 [Compound 261, (R)-1-(8-(isopropylamino)-2-((6-(piperazin-1-yl)pyridazin-3-yl)amino)pyrido[3,4-d]pyrimidin-6-yl)ethanol]	≥ 100	< 10		
CC(C)Nc1nc(C(F)F)cc2cnc(Nc3ccc(NC(N)=O)cn3)nc12 [Compound 85]	10 to 100	10 to 100		
CCCNc1nc([C@@H](C)O)cc2cnc(Nc3ccc(C(=O)N4CCN(C)CC4)cn3)nc12 [Compound 1221]			≥ 100	< 10
CC(C)Nc1nc(C(F)F)cc2cnc(Nc3ccc(CN4CCNCC4)cn3)nc12 [Compound 47]	10 to 100	< 10		
CCNc1nc([C@@H](C)OC)cc2cnc(Nc3ccc4c(n3)CCN(CCO)C4)nc12 [Compound 1120]			≥ 100	10 to 100
COCC(C)(C)Nc1nc([C@@H](C)O)cc2cnc(Nc3ccc(CN4CCC(C(=O)O)CC4)cn3)nc12 [Compound 197]	≥ 100	10 to 100		
C[C@@H](O)c1cc2cnc(Nc3ccc(N4CCNCC4=O)cn3)nc2c(N[C@H]2CC[C@H](C)CC2)n1 [Compound 612]	10 to 100	< 10		
CC(C)Nc1nc([C@@H](C)O)cc2cnc(Nc3ccc(C4CCCNC(C)C4=O)cn3)nc12 (stereo partly shown) [Compound 686]			≥ 100	< 10
CC(C)Nc1nc(C(F)F)cc2cnc(Nc3ccc(N4CCC(N)C4)cn3)nc12 (stereo not shown) [Compound 52]	10 to 100	< 10		
CO[C@H](C)c1cc2cnc(Nc3ccc(CN4CCN(CCO)CC4)cn3)nc2c(NC(C)C)n1 [Compound 508]	≥ 100	< 10		
CCNc1nc([C@@H](C)O)cc2cnc(Nc3ccc(CN4CCN(CCO)CC4(C)C)cn3)nc12 [Compound 1203]			≥ 100	10 to 100
CN(C)CCOC(=O)N1CCc2nc(Nc3ncc4cc(C5(C)COC5)nc(N[C@H]5CCCOC5)c4n3)ccc2C1 [Compound 1137]			≥ 100	< 10
COCC(C)(C)Nc1nc([C@@H](C)O)cc2cnc(Nc3ccc(CN4CCOCC4)cn3)nc12 [Compound 180]	≥ 100	10 to 100		
FC(F)c1cc2cnc(Nc3ccc(N4CCNCC4)cn3)nc2c(NC2COC2)n1 [Compound 33]	≥ 100	≥ 100		
COC[C@@H](C)Nc1nc([C@@H](C)O)cc2cnc(Nc3ccc(CN4CCN(C)CC4)cn3)nc12 [Compound 1105]			≥ 100	< 10

Compound	IC50 [1, 3] [nM]	IC50 [2, 4] [nM]	IC50 [1, 5] [nM]	IC50 [2, 6] [nM]
CNCCOc1ccc(Nc2ncc3cc([C@@H](C)O)nc(NC4CCC(OC)CC4)c3n2)nc1 (stereo partly shown) [Compound 592]	≥ 100	< 10		
CO[C@H](C)c1cc2cnc(Nc3ccc(OCC(=O)N4CCNCC4)cn3)nc2c(NC(C)C)n1 [Compound 557]	≥ 100	< 10		
Cc1c([C@H](C)O)nc(NC(C)C)c2nc(Nc3ccc(N4CCNCC4)cn3)ncc12 [Compound 65]	≥ 100	10 to 100		
C[C@@H](O)c1cc2cnc(Nc3ccc(N4CCNCC4)nn3)nc2c(N[C@@H]2CCCOC2)n1 [Compound 254]	≥ 100	< 10		
CC(C)Nc1nc([C@@H](C)O)cc2cnc(Nc3ccc(CN4CCC(C(C)(C)O)CC4)cn3)nc12 [Compound 549]	≥ 100	< 10		
CCNc1nc([C@@H](C)O)c(F)c2cnc(Nc3ccc(CN4CCN(CCO)CC4)cn3)nc12 [Compound 1202]			≥ 100	< 10
CO[C@H](C)c1cc2cnc(Nc3ccc(N4CCN(C(=O)C5CCOC5)CC4)nn3)nc2c(NC(C)C)n1 (stereo partly shown) [Compound 1177]			≥ 100	< 10
CC(C)Nc1nc(C(C)O)cc2cnc(Nc3ccc(C4CNCCO4)cn3)nc12 (single isomer, unassigned) [Compound 736]			≥ 100	< 10
COC[C@@H](C)Nc1nc([C@@H](C)OC)cc2cnc(Nc3ccc(CN4CCN(CCO)CC4)cn3)nc12 [Compound 916]			≥ 100	< 10
CC(C)Nc1nc(C2CCCO2)cc2cnc(Nc3ccc(CN4CCNCC4)cn3)nc12 (single isomer, unassigned) [Compound 730]			≥ 100	10 to 100
O=C(O)[C@H]1CC[C@H](Nc2nc(C(F)F)cc3cnc(Nc4ccc(N5CCNCC5)nn4)nc23)CC1 [Compound 384]	≥ 100	10 to 100		
CC(C)Nc1nc(C(C)O)cc2cnc(Nc3ccc(N4CCC(N)C4)cn3)nc12 (stereo not shown) [Compound 76]	≥ 100	< 10		
CNC(=O)N1CCc2nc(Nc3ncc4cc([C@@H](C)O)nc(NC(C)C)c4n3)ccc2C1 [Compound 933]			≥ 100	< 10
CC(C)CNc1nc(C(F)F)cc2cnc(Nc3ccc(CN4CCC(C(=O)O)CC4)cn3)nc12 [Compound 1098]			≥ 100	10 to 100
CCCN1CCN(Cc2ccc(Nc3ncc4cc([C@@H](C)O)nc(NC(C)(C)COC)c4n3)nc2)CC1 [Compound 243]	≥ 100	< 10		
CO[C@H](C)c1cc2cnc(Nc3ccc4c(n3)CCN(CCO)C4)nc2c(N[C@H]2CC[C@H](O)CC2)n1 [Compound 1153]			≥ 100	< 10
CCNc1nc([C@@H](C)O)cc2cnc(Nc3ccc(CN4CCN(C)CC4)cn3)nc12 [Compound 1103]			≥ 100	< 10
C[C@@H](O)c1cc2cnc(Nc3ccc(CN4CCC(CO)CC4)cn3)nc2c(N[C@H]2CC[C@H](O)CC2)n1 [Compound 1151]			≥ 100	< 10
